# Laboratory results from US7179920B2, “3-thia-4-arylquinolin-2-one derivatives” (Bristol-Myers Squibb Company, priority 2003, dated 2007).
# Legend:
# [1] = system: rat small intestine tissue; experiment: Rat small intestine (ileum) strips: inhibition of nifedipine-sensitive force; conditions: integral of nifedipine-sensitive force, 30 min post-compound
# Excerpt: The ability of the compounds of the invention to relax rat small intestine tissue as a model for the treatment of irritable bowel syndrome is described as follows. Male rats (Harlan, Sprague Dawley, 250–350 g) were sacrificed by decapitation. A portion of small intestine (ileum) was removed and the attached connective tissues and intestinal contents removed. The ileum was cut into segments of ≦1 cm in length. The segments were mounted longitudinally between fixed hooks in organ baths containing warm (37° C.) physiological salt solution (composition in mM: NaCl 118.4, KCl 4.7, KH2PO4 1.2, MgSO4 1.2, CaCl2 1.8, Glucose 10.1, NaHCO3 25; gassed with 95% O2/5% CO2, pH 7.4). A stable tension of ˜1.5 g was maintained in the tissue segments during the equilibration period of 45 minutes. Changes in muscle tension were measured with isometric force transducers (Grass, FT-03C) and recorded using AcqKnowledge data acquisition system (AcqKnowledge for MP100WS, Biopac Systems Inc., Goleta, Calif.). Compound or vehicle was added in the baths for 30 minutes. “Zero” active force was established at the end of the experiment using nifedipine (20 μM). The effects of compounds or vehicle on force was determined by measuring the integral of nifedipine-sensitive force (including resting tone and spontaneous contractions) pre- and 30 min post-compound (or vehicle) addition. Results are expressed as the percentage inhibition of force. DMSO vehicle inhibited force (integral) by −0.6±3.0% (n=25).
# [2] = system: cloned mammalian (mSlo or hSlo) BK (Maxi-K) channel; experiment: Assay for BK channel openers: two-electrode voltage clamp of BK-mediated outward current in Xenopus oocytes; type: cell-based; conditions: voltage step to +140 mV
# Excerpt: The experimental media (modified Barth's solution) consisted of millimolar (“mM”): NaCl (88), NaHCO3 (2.4), KCl (1.0), HEPES (10), MgSO4 (0.82), Ca(NO3)2 (0.33), CaCl2 (0.41); pH 7.5.
# [3] = system: rabbit corpus cavernosum tissue; experiment: Rabbit corpus cavernosum strips: relaxation of phenylephrine-induced force; conditions: Oryctolagus cuniculus; inhibition of phenylephrine (3 μM)-induced force as compared to vehicle control; read-out: % Inhibition of force (RCC strips)
# Method: The ability of the compounds of the invention to relax rabbit corpus cavernosum tissue as a model for the treatment of erectile dysfunction is described as follows. New Zealand white rabbits (3.4–3.7 kg) were euthanized by sodium pentobarbital (100 mg/kg) overdose. The penis from each animal was rapidly removed and immersed in a cold oxygenated modified Krebs Henseleit bicarbonate buffer. The penis' outer tunica was removed and the corpus cavernosum smooth muscle obtained and cut into strips approximately 3–5 mm long. The strips were suspended in tissue baths containing physiological salt solution (see above), and allowed to equilibrate for at least one hour under resting tension of 1.0 gram. Isometric force was measured as described above. Tissue strips were stimulated with the α-agonist phenylephrine (3 μM) and allowed to reach a steady level of force prior to the addition of test compounds. The results are expressed as the percentage inhibition of phenylephrine-induced force as compared to vehicle control.
# [4] = at 20 μM, percent increase over BK current in controls
# [5] = at 1 μM, percent increase over BK current in controls
Compound,"% MaxiK opening [2, 4] [%]",melting point [°C],inhibition [3] [%],further results
"O=c1[nH]c2ccc(C(F)(F)F)cc2c(-c2cc(Cl)ccc2O)c1SCC(O)CO (racemic) [Example 17, (±)-4-(5-Chloro-2-hydroxyphenyl)-3-(2,3-dihydroxypropylsulfanyl)-6-trifluoromethyl-1H-quinolin-2-one]",246,178 to 180,31,% Inhibition of force (RSI strips) [1]: 6%
COc1ccc(Cl)cc1-c1c(SCC(=O)O)c(=O)[nH]c2ccc(C(F)(F)F)cc12 [Example 1],155,235,14,–
"CCNC(=O)NCCSc1c(-c2cc(Cl)ccc2OC)c2cc(C(F)(F)F)ccc2[nH]c1=O [Example 3, 1-{2-[4-(5-Chloro-2-methoxy-phenyl)-2-oxo-6-trifluoromethyl-1,2-dihydro-quinolin-3-ylsulfanyl]-ethyl}-3-ethyl-urea]",123,–,–,% Inhibition of force (RSI strips) [1]: 17b %
"COc1ccc(Cl)cc1-c1c(SCCNC(N)=O)c(=O)[nH]c2ccc(C(F)(F)F)cc12 [Example 4, 1-{2-[4-(5-Chloro-2-methoxy-phenyl)-2-oxo-6-trifluoromethyl-1,2-dihydro-quinolin-3-ylsulfanyl]-ethyl}urea]",140,–,–,–
"NC(=O)NCCSc1c(-c2cc(Cl)ccc2O)c2cc(C(F)(F)F)ccc2[nH]c1=O [Example 5, 1-{2-[4-(5-Chloro-2-hydroxy-phenyl)-2-oxo-6-trifluoromethyl-1,2-dihydro-quinolin-3-ylsulfanyl]-ethyl}urea]",165,–,65,% Inhibition of force (RSI strips) [1]: 21%
"CNC(=O)NCCSc1c(-c2cc(Cl)ccc2O)c2cc(C(F)(F)F)ccc2[nH]c1=O [Example 6, 1-{2-[4-(5-Chloro-2-hydroxy-phenyl)-2-oxo-6-trifluoromethyl-1,2-dihydro-quinolin-3-ylsulfanyl]-ethyl}-3-methyl-urea]",176,–,–,–
"CCNC(=O)NCCSc1c(-c2cc(Cl)ccc2O)c2cc(C(F)(F)F)ccc2[nH]c1=O [Example 7, 1-{2-[4-(5-Chloro-2-hydroxy-phenyl)-2-oxo-6-trifluoromethyl-1,2-dihydro-quinolin-3-ylsulfanyl]-ethyl}-3-ethyl-urea]",–,–,–,% MaxiK opening ([2]; marked ⋄⋄ (concentration footnote not given)): 160^⋄⋄ %
"O=c1[nH]c2ccc(C(F)(F)F)cc2c(-c2cc(Cl)ccc2O)c1S [Example 8, 4-(5-Chloro-2-hydroxyphenyl)-3-mercapto-6-trifluoromethyl-1H-quinolin-2-one]",197,–,–,–
"COc1ccc(Cl)cc1-c1c(S)c(=O)[nH]c2ccc(C(F)(F)F)cc12 [Example 9, 4-(5-Chloro-2-methoxyphenyl)-3-mercapto-6-trifluoromethyl-1H-quinolin-2-one]",–,239 to 241,–,"% MaxiK opening [2, 5]: 149^⋄ %"
"O=c1[nH]c2ccc(C(F)(F)F)cc2c(-c2cc(Cl)ccc2O)c1SCCO [Example 10, 4-(5-Chloro-2-hydroxyphenyl)-3-(2-hydroxyethylsulfanyl)-6-trifluoromethyl-1H-quinolin-2-one]",348,278 to 279,43,–
"N#CCCSc1c(-c2cc(Cl)ccc2O)c2cc(C(F)(F)F)ccc2[nH]c1=O [Example 11, 3-[4-(5-Chloro-2-hydroxyphenyl)-2-oxo-6-trifluoromethyl-1,2-dihydro-quinolin-3-ylsulfanyl]propionitrile]",189,140,–,–
"COCCSc1c(-c2cc(Cl)ccc2O)c2cc(C(F)(F)F)ccc2[nH]c1=O [Example 12, 4-(5-Chloro-2-hydroxyphenyl)-3-(2-methoxyethylsulfanyl)-6-trifluoromethyl-1H-quinolin-2-one]",–,–,–,"% MaxiK opening [2, 5]: 208^⋄ %"
"N#CCCCSc1c(-c2cc(Cl)ccc2O)c2cc(C(F)(F)F)ccc2[nH]c1=O [Example 13, 4-[4-(5-Chloro-2-hydroxyphenyl)-2-oxo-6-trifluoromethyl-1,2-dihydro-quinolin-3-ylsulfanyl]butyronitrile]",198,217,–,–
"O=c1[nH]c2ccc(C(F)(F)F)cc2c(-c2cc(Cl)ccc2O)c1SCCCO [Example 14, 4-(5-Chloro-2-hydroxyphenyl)-3-(3-hydroxypropylsulfanyl)-6-trifluoromethyl-1H-quinolin-2-one]",242,178 to 180,23,–
"COc1ccc(Cl)cc1-c1c(SCCCO)c(=O)[nH]c2ccc(C(F)(F)F)cc12 [Example 15, 4-(5-Chloro-2-methoxyphenyl)-3-(3-hydroxypropylsulfanyl)-6-trifluoromethyl-1H-quinolin-2-one]",140,211,–,–
"COc1ccc(Cl)cc1-c1c(SCCO)c(=O)[nH]c2ccc(C(F)(F)F)cc12 [Example 16, 4-(5-Chloro-2-methoxyphenyl)-3-(2-hydroxyethylsulfanyl)-6-trifluoromethyl-1H-quinolin-2-one]",149,98 to 100,–,–
"O=c1[nH]c2ccc(C(F)(F)F)cc2c(-c2cc(Cl)ccc2O)c1SC[C@@H](O)CO [Example 18, (S)-4-(5-Chloro-2-hydroxyphenyl)-3-(2,3-dihydroxypropylsulfanyl)-6-trifluoromethyl-1H-quinolin-2-one]",223,–,45,–
"O=c1[nH]c2ccc(C(F)(F)F)cc2c(-c2cc(Cl)ccc2O)c1SC[C@H](O)CO [Example 19, (R)-4-(5-Chloro-2-hydroxyphenyl)-3-(2,3-dihydroxypropylsulfanyl)-6-trifluoromethyl-1H-quinolin-2-one]",256,–,41,–
"COc1ccc(Cl)cc1-c1c(SCC(O)CO)c(=O)[nH]c2ccc(C(F)(F)F)cc12 (centres unmarked) [Example 20, 4-(5-Chloro-2-methoxyphenyl)-3-(2,3-dihydroxypropylsulfanyl)-6-trifluoromethyl-1H-quinolin-2-one]",178,110 to 114,–,–
COc1ccc(Cl)cc1-c1c(S/C=C/CO)c(=O)[nH]c2ccc(C(F)(F)F)cc12 [Example 21],–,148 to 150,–,"% MaxiK opening [2, 5]: 135^⋄ %"
